Source: patent US5744621A, “Irreversible HIV protease inhibitors, intermediates, compositions and processes for the preparation thereof” (Lucky Limited., priority 1992, dated 1998)
pIC50, pKi: −log10 of the molar value. Where two headings read alike, the source gives them in different places.

Key:
HIV-1 = experiment: Anti-viral activity: syncytium formation (Sup T1) or reverse transcriptase assay (H9); format: cell-based; conditions: Human immunodeficiency virus 1, SUP-T1
Protocol: The anti-viral activity of the compounds of the present invention was determined by measuring the concentration of the compounds that inhibits the proliferation of HIV by 50%(IC50) through a survey for syncytium formation or reverse transcriptase assay.
1×10^5 cells of each of H9(ATCC HTB 176) and Sup T1 cell lines were added to the wells of a 24-well microtiter plate and various concentrations so the compounds of the present invention were added thereto. 200 TCID50 (200-fold of 50% tissue culture infection dose) of HIV-1 inoculum and rpmi-1640 medium(Sigma Chemical Co., U.S.A) were added successively to the wells and the plate was incubated at 37° C. In case of Sup T1, the number of syncytium formed was investigated after 3 to 9 days. IC50 of each compound was determined by measuring the concentration of inhibitor that can reduce the number of syncytium by 50% compared with those formed in the same condition without the inhibitor.
In case of H9, three-quarters(3/4) of the culture medium in volume was refreshed every 3 days; and 6 ml of the culture fluid was centrifuged at 1000 rpm for 10 minutes. To 5 ml of the resulting supernatant were added 2.5 ml of 30% polyethyleneglycol(PEG, M.W. 6000-8000) and 0.4M NaCl. The resulting solution was allowed to stand at 0° C. overnight to precipitate virus particles. The solution was centrifuged at 2000 rpm for 45 minutes, the supernatant was discarded therefrom and the precipitate was diluted with 20 μl of a reverse transcriptase suspension buffer(50 mM tris-HCl, pH 7.5, 1 mM dithiothreitol, 20% glycerol, 0.25M KCl and 0.25% Triton X-100). The resulting suspension was stored in an Effendorf tube at -70° C. until used. A procedure of freezing said virus suspension for 2 minutes in dry ice and thawing same at 37° C. for 2 minutes was repeated three times and the resulting suspension was centrifuged at 4° C. The resulting supernatant was used in carrying out the reverse transcriptase assay.
10 μl of the said viral suspension was added to a solution of: 10 μl of buffer solution(250 mM tris-HCl, pH 7.5, 37.5 mM MgCl2, 0.25% triton X-100), 1.2 μl of 200 mM dithiothreitol, 5 μl of 10 μM oligo(dT)-poly(A)(Boeringer Manheim, 12-18 oligomer), 1 μl(1 μCi) of ^3 H-TTP(Thymidinetri-phosphate) and 23.6 μl of water; and the resulting mixture was placed at 37° C. After 1 hour, the mixture was poured onto a WHATMAN DEB1 filter and the filter was washed three times with 5 ml of 2×SSC buffer solution(17.53 g of sodium chloride, 8.82 g of sodium citrate, pH 7.0, 1 liter of water) for about 10 minutes each time and twice with 95% ethanol for 10 seconds. The filter was put onto aluminium foil and dried with an infra-red lamp. The amount of radioactivity was counted using a liquid scintillation counter. IC50 of each compound was determined by measuring the concentration of inhibitor that can reduce the activity of reverse transcriptase by 50%.

[1] = Cytotoxicity in H9 or Sup T1 cells (trypan blue dye exclusion); format: cell-based; conditions: human
Protocol: To determine the cytotoxicity of the compounds of the present invention, 0.1 μM to 100 μM of the novel compounds were added to H9 cell or Sup T1 cell and the mixture was cultured on a rpmi-1640 medium at 37° C. The medium was refreshed every 3 days and the extent of cell proliferation was observed using Hemacytometer according to the trypan blue dye exclusion technique which is well known in the art. CT50 (i.e., concentration that causes death of cells by 50%) was determined. For reference, AZT(Burrows-Wellcome), A-75925 (Abbott, C2 symmetric compound) and Ro-31-8959(F. Hofmann-La Roche) were used as control compounds.

HIV-1 protease = target: T1, HIV-1 protease (Human immunodeficiency virus type 1 group M subtype B, UniProt P04585); experiment: Assay for inhibitory effect on HIV protease (residual enzyme activity, HPLC of substrate cleavage); format: biochemical; conditions: pH 5.5; for pKi / kinact: HIV-1 protease 2.6 nM; for pKi: inhibition constant; for kinact: rate constant of covalent bond formation, read-out: kina (converted); for kinact/KI: second order rate constant, HIV-1 protease, read-out: kina /KI (converted)
T1 construct: 2.6 nM of HIV-1 protease
Protocol: The inhibitory effect on HIV protease of the compounds of the present invention was determined by the following method.
To a buffer solution comprising 50 mM sodium acetate, pH 5.5, 1 mM dithiothreitol(DTT), 1 mM ethylenediaminetetraacetate (EDTA), 0.75M ammonium sulfate, 0.2M sodium chloride and 0.1% NP40(NONIDET P-40; Sigma Chemical Co., U.S.A.), were added various concentrations of a compound selected from Compound Nos. 1 to 92 to prepare a preincubation solution. Inhibition reaction was started with the addition of 2.6 nM of HIV-1 protease to the preincubation solution. Each 10 μl of the reaction solution was taken at a given time interval and added to 80 μl of assay solution containing 100 μM of reaction substrate in the same buffer solution as above to assay for the residual enzyme activity. In this context, an oligopeptide(KM =20 μM) consisting of 11 amino acids, i.e., Ser-Ile-Ala-Glu-(p-NO2)-Phe-Leu-Val-Arg-Ala-Lys-His, was used as a reaction substrate, which oligopeptide was to be cleaved in two by the breakage of amide bond between (P--NO2)-Phe and Leu upon the attack of HIV protease. The reaction rate was determined by subjecting the substrate before the reaction and the product after the reaction to HPLC separation and then measuring the relative amount of the product, using the strong absorbance of (p--NO2)-Phe at 280 nm. The amount of reduction in enzyme activity according to the elapsed time were measured and the natural logarithmic values(ln) of the measured amounts were plotted against time to obtain a linear graph and kobs was calculated from the slope of the linear graph.
The inhibition constant was calculated according to the following equation: [formula] wherein: kobs is a rate constant indicating the rate of reduction in enzyme activity according to the elapsed time under the presence of a given concentration of inhibitor,
kina is a rate constant indicating the rate of chemical reaction forming covalent bond between an enzyme and an inhibitor in Michaelis-Menten complex,
KI is an inhibition constant indicating the dissociation rate of Michaelis-Menten complex into an enzyme and an inhibitor, and
[I] means the inhibitor concentration.
The above equation is applicable to an experiment carried out under the condition in which the concentration of inhibitor is far higher than that of enzyme(Steady State Kinetic). […] The inhibition constants KI and kina and second order rate constant kina /KI were obtained by inputting the value of [E]/([E]+[EI]+[EI']) into KINSIM/FITSIM program. FIG. 1 exemplifies a result of the experiment determining the binding ratio of enzymes and inhibitors, which result was obtained by reacting the enzyme and the inhibitor in various concentration ratios for a sufficient time period(at least for 30 minutes), and then plotting the relative activity of the remaining enzyme against [conc. of inhibitor]/[conc. of enzyme].

[2] = concentration that causes death of cells by 50%, H9 or Sup T1 cells, 37° C, read-out: CT50 (the source's name)

| SMILES | pIC50 (HIV-1) | CC50 ([1]; h9 or sup t1 cells) [nM] | pKi (HIV-1 protease) | kinact (HIV-1 protease) [s⁻¹] | kinact/KI (HIV-1 protease) [M⁻¹ s⁻¹] | CC50 [1, 2] [nM] |
| --- | --- | --- | --- | --- | --- | --- |
| CC(C)(C)NC(=O)[C@@H]1C[C@@H]2CCCC[C@@H]2CN1C[C@@H](O)[C@H](Cc1ccccc1)NC(=O)[C@H](CC(N)=O)NC(=O)c1ccc2ccccc2n1 [Ro-31-8959, reference compound] | 7.40 | > 100000 | – | – | – | – |
| CC[C@H](C)[C@H](NC(=O)C[C@@H]1O[C@@H]1[C@H](Cc1ccccc1)NC(=O)[C@H](CC(N)=O)NC(=O)c1ccc2ccccc2n1)C(=O)OC [compound 2, N-[5-L-[[N-(2-quinolinecarbonyl)-L-asparaginyl]amino]-epoxy-6-phenyl-hexanoyl]-L-isoleucine methyl ester] | 6.70 | – | 7.74 | 0.00367 | 200000 | > 100000 |
| CC[C@H](C)[C@H](NC(=O)C[C@@H]1O[C@@H]1[C@H](Cc1ccccc1)NC(=O)[C@H](CC(N)=O)NC(=O)COc1cccc2ccccc12)C(=O)OC [compound 3] | 5.52 | – | 7.40 | 0.002 | 50000 | > 100000 |
| CC[C@H](C)[C@H](NC(=O)C[C@@H]1O[C@@H]1[C@H](Cc1ccccc1)NC(=O)[C@H](CC(N)=O)NC(=O)c1ccc2ccccc2n1)C(=O)N[C@H](C(=O)OC)C(C)C [compound 6] | 5.30 | – | 6.38 | 0.00217 | 5170 | > 100000 |
| CC[C@H](C)[C@H](NC(=O)C[C@@H]1O[C@@H]1[C@H](Cc1ccccc1)NC(=O)[C@H](CC(N)=O)NC(=O)c1ccc2ccccc2n1)C(=O)NCc1ccccc1 [compound 8] | 5.15 | – | 7.22 | 0.002 | 33300 | > 100000 |
| CC[C@H](C)[C@H](NC(=O)C[C@@H]1O[C@@H]1[C@H](Cc1ccccc1)NC(=O)[C@H](CC(N)=O)NC(=O)c1ccc2ccccc2n1)C(=O)NCc1ccccn1 [compound 9] | 5.10 | – | 7.26 | 0.00183 | 33300 | > 100000 |
| COC(=O)C(CCC(N)=O)NC(=O)C[C@@H]1O[C@@H]1[C@H](Cc1ccccc1)NC(=O)[C@H](CC(N)=O)NC(=O)c1ccc2ccccc2n1 (stereo partly shown) [compound 12] | 5.15 | – | 6.43 | 0.005 | 13500 | > 100000 |
| COC(=O)C(CCC(N)=O)NC(=O)C[C@@H]1O[C@@H]1[C@H](Cc1ccccc1)NC(=O)[C@H](CC(N)=O)NC(=O)OCc1ccccc1 (stereo partly shown) [compound 13] | 5.00 | – | 6.28 | 0.00717 | 13800 | > 100000 |
| COC(=O)C(Cc1ccccc1)NC(=O)C(CCC(N)=O)NC(=O)C[C@@H]1O[C@@H]1[C@H](Cc1ccccc1)NC(=O)[C@H](CC(N)=O)NC(=O)c1ccc2ccccc2n1 (stereo partly shown) [compound 14] | 5.05 | – | 6.46 | 0.00417 | 11800 | > 100000 |
| CC(C)[C@H](NC(=O)C[C@@H]1O[C@@H]1[C@H](Cc1ccccc1)NC(=O)[C@H](CC(N)=O)NC(=O)c1ccc2ccccc2n1)C(=O)NCc1ccccn1 [compound 19] | 5.30 | – | 7.09 | 0.00367 | 45000 | > 100000 |
| CC[C@H](C)[C@H](NC(=O)C[C@@H]1O[C@@H]1[C@H](Cc1ccccc1)NC(=O)[C@H](CC(N)=O)NC(=O)c1ccc2ccccc2n1)C(=O)NC [compound 25, N-{5-L-[[N-(2-quinolinecarbonyl)-L-asparaginyl]amino]-(4R,3S)-epoxy-6-phenylhexanoyl}-L-isoleucinyl-methylamide] | 6.30 | – | 7.70 | 0.003 | 150000 | > 100000 |
| CC[C@H](C)[C@H](NC(=O)C[C@@H]1O[C@@H]1[C@H](Cc1ccccc1)NC(=O)[C@H](CC(N)=O)NC(=O)c1ccc2ccccc2n1)C(=O)N(C)C [compound 26] | 6.30 | – | < 5.00 | – | – | > 100000 |
| CC[C@H](C)[C@H](NC(=O)C[C@@H]1O[C@@H]1[C@H](Cc1ccccc1)NC(=O)[C@H](CC(N)=O)NC(=O)c1ccc2ccccc2n1)C(N)=O [compound 27, N-{5-L-[[N-(2-quinolinecarbonyl)-L-asparaginyl]amino]-(4R,3S)-epoxy-6-phenylhexanoyl}-L-isoleucinyl amide] | 6.00 | – | 8.52 | 0.00333 | 1.12e+06 | ~10000 |
| CC[C@H](C)[C@H](NC(=O)C[C@@H]1O[C@@H]1[C@H](Cc1ccccc1)NC(=O)[C@H](CC(N)=O)NC(=O)c1ccc2ccccc2n1)C(=O)NOC [compound 28, N-{5-L-[[N-(2-quinolinecarbonyl)-L-asparaginyl]amino]-(4R,3S)-epoxy-6-phenylhexanoyl}-L-isoleucinyl-(N-methoxy)-amine] | 6.22 | – | 7.82 | 0.00333 | 217000 | > 100000 |
| CC(C)[C@H](NC(=O)C[C@@H]1O[C@@H]1[C@H](Cc1ccccc1)NC(=O)[C@H](CC(N)=O)NC(=O)c1ccc2ccccc2n1)C(N)=O [compound 32] | 6.30 | – | 8.30 | 0.00367 | 733000 | > 100000 |
| CC[C@H](C)[C@H](NC(=O)C[C@@H]1O[C@@H]1[C@H](Cc1ccccc1)NC(=O)[C@@H](NC(=O)N(C)Cc1ccccn1)C(C)C)C(=O)OC [compound 35, N-{N-L-[[N,N-(2-pyridylmethyl)(methyl)-amino]carbonylvalinyl]amino-(4R,3S)-epoxy-6-phenyl-hexanoyl}-L-isoleucine methyl ester] | 6.00 | – | < 5.00 | – | – | > 100000 |
